The source of these data is patent US9273014B2, “Bis(fluoroalkyl)-1,4-benzodiazepinone compounds and prodrugs thereof” (Bristol-Myers Squibb Company, priority 2012, dated 2016).

Where only a bound is given, the exact number is not on record here.

What is called half-life is the time in which the quantity being followed falls by half. A higher half-life goes with slow decline.

This data set can be described thus: in vitro. Particulars: human, microsomes, pH 7.4.
In turn, `CCC[C@H](C(N)=O)[C@@H](CC(C)C)C(=O)N[C@H]1N=C(c2ccccc2)c2ccccc2N(C)C1=O` [Comparative Compound 45, reference compound] returned a half-life of 8 min.
For the compound `C=CC[C@H](C(N)=O)[C@@H](CC(C)C)C(=O)N[C@H]1N=C(c2ccccc2)c2cc(Cl)ccc2N(C)C1=O` [Comparative Compound 46, reference compound], the half-life was found to be 6 min.
For `CCCC[C@H](C(N)=O)[C@@H](CC(C)C)C(=O)N[C@H]1N=C(c2ccc(Cl)cc2)c2ccccc2N(C)C1=O` [Comparative Compound 47, reference compound], the half-life came to 6 min.
To `C=CC[C@H](C(N)=O)[C@@H](CC(C)C)C(=O)N[C@H]1N=C(c2ccccc2)c2ccccc2N(CCC)C1=O` [Comparative Compound 48, reference compound] belongs 3 min; to `Cc1cccc2c1NC(=O)[C@@H](NC(=O)[C@H](CCC(F)(F)F)[C@H](CCC(F)(F)F)C(N)=O)N=C2c1cccc(Cl)c1` [Example 7, (2R,3S)—N-((3S)-5-(3-Chlorophenyl)-9-methyl-2-oxo-2,3-dihydro-1H-1,4-benzodiazepin-3-yl)-2,3-bis(3,3,3-trifluoropropyl)succinamide], more than 120 min.
To `Cc1cccc(C2=N[C@H](NC(=O)[C@H](CCC(F)(F)F)[C@H](CCCC(F)(F)F)C(N)=O)C(=O)Nc3c2cccc3C(F)(F)F)c1` [Example 11, (2R,3S)—N-((3S)-5-(3-Methylphenyl)-2-oxo-9-(trifluoromethyl)-2,3-dihydro-1H-1,4-benzodiazepin-3-yl)-3-(4,4,4-trifluorobutyl)-2-(3,3,3-trifluoropropyl)succinamide] belongs 42 min; to `CC(C)c1cccc2c1NC(=O)[C@@H](NC(=O)[C@H](CCC(F)(F)F)[C@H](CCC(F)(F)F)C(N)=O)N=C2c1ccccc1` [Example 13, (2R,3S)—N-((3S)-9-Isopropyl-2-oxo-5-phenyl-2,3-dihydro-1H-1,4-benzodiazepin-3-yl)-2,3-bis(3,3,3-trifluoropropyl)succinamide], 48 min.
As to `Cc1cccc(C2=N[C@H](NC(=O)[C@H](CCC(F)(F)F)[C@H](CCCC(F)(F)F)C(N)=O)C(=O)Nc3c(OC4CC4)cccc32)c1` [Example 14, (2R,3S)—N-((3S)-9-(Cyclopropyloxy)-5-(3-methylphenyl)-2-oxo-2,3-dihydro-1H-1,4-benzodiazepin-3-yl)-3-(4,4,4-trifluorobutyl)-2-(3,3,3-trifluoropropyl)succinamide], the half-life was determined as 56 min.
To `Cc1cccc(C2=N[C@H](NC(=O)[C@H](CCC(F)(F)F)[C@H](CCC(F)(F)F)C(N)=O)C(=O)Nc3c(OC4CC4)cccc32)c1` [Example 15, (2R,3S)—N-((3S)-9-(Cyclopropyloxy)-5-(3-methylphenyl)-2-oxo-2,3-dihydro-1H-1,4-benzodiazepin-3-yl)-2,3-bis(3,3,3-trifluoropropyl)succinamide] belongs 101 min; to `COc1cccc2c1NC(=O)[C@@H](NC(=O)[C@H](CCC(F)(F)F)[C@H](CCC(F)(F)F)C(N)=O)N=C2c1cccc(C)c1` [Example 29, (2R,3S)—N-((3S)-5-(3-Methylphenyl)-9-methoxy-2-oxo-2,3-dihydro-1H-1,4-benzodiazepin-3-yl)-2,3-bis(3,3,3-trifluoropropyl)succinamide], 98 min.
The value for `NC(=O)[C@@H](CCC(F)(F)F)[C@@H](CCC(F)(F)F)C(=O)N[C@H]1N=C(c2ccc(CO)cc2)c2ccccc2NC1=O` [Example 30, (2R,3S)—N-((3S)-5-(4-(Hydroxymethyl)phenyl)-2-oxo-2,3-dihydro-1H-1,4-benzodiazepin-3-yl)-2,3-bis(3,3,3-trifluoropropyl)succinamide] was 92 min; that for `Cc1cccc(C2=N[C@H](NC(=O)[C@H](CCC(F)(F)F)[C@H](CCC(F)(F)F)C(N)=O)C(=O)Nc3ccccc32)c1` [Example 32, (2R,3S)—N-((3S)-5-(3-Methylphenyl)-2-oxo-2,3-dihydro-1H-1,4-benzodiazepin-3-yl)-2,3-bis(3,3,3-trifluoropropyl)succinamide] was 82 min.
